Laboratory results reported in patent US6737383B1, “Herbicidal oxadiazolidines” (priority 1999, dated 2004).

Tests used:
bedstraw = experiment: Test B pre/postemergence bedstraw; format: in vivo, Galium aparine
Summary of the method: (§1)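 Response is a visual 0-to-10 score relative to untreated plants, where 0 means no effect and 10 means complete control, taken twelve to sixteen days after application. Treatments went onto soil at planting and onto foliage of 1- to 4-leaf plants, using a surfactant-containing non-phytotoxic solvent.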

surinam grass = experiment: Test B pre/postemergence surinam grass; format: in vivo, Brachiaria decumbens
Summary of the method: as §1

wild oat [1] = experiment: Test B pre/postemergence wild oat; format: in vivo, Avena fatua
Summary of the method: as §1

bamyardgrass = experiment: Test B flood test barnyardgrass; format: in vivo, Echinochloa crus-galli
Summary of the method: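 Each value is a visual injury score relative to controls, with 10 meaning complete control and 0 no effect. Evaluation took place twelve to sixteen days after the 2-leaf-stage plants were treated and kept in the greenhouse.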

winter wheat [2] = experiment: Test E winter wheat; format: in vivo, Triticum aestivum; settings: Postemergence; for Wheat (winter) plant response rating: Rate 250 g/ha
Summary of the method: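 Plants were grown under normal greenhouse practice; for postemergence, in sandy loam soil mixed 60:40 with potting mix, treated at the 1- to 4-leaf stage. The compound was in a non-phytotoxic solvent carrying a surfactant. After roughly 21 to 28 days plants were scored visually against untreated plants.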

blackgrass = experiment: Test E blackgrass; format: in vivo, Alopecurus myosuroides; settings: Preemergence; for Blackgrass plant response rating (0 to 100 scale): Rate 250 g/ha
green foxtail = experiment: Test E green foxtail; format: in vivo, Setaria viridis; settings: Preemergence; for Green foxtail plant response rating (0 to 100 scale): Rate 250 g/ha
Italian ryegrass = experiment: Test E Italian ryegrass; format: in vivo, Lolium multiflorum; settings: Preemergence; for I. Ryegrass plant response rating (0 to 100 scale): Rate 250 g/ha
winter wheat [3] = experiment: Test E winter wheat; format: in vivo, Triticum aestivum; settings: Preemergence; for Wheat (winter) plant response rating (0 to 100 scale): Rate 250 g/ha
wild oat [4] = experiment: Test E wild oat; format: in vivo, Avena fatua; settings: Preemergence; for Wild oat plant response rating (0 to 100 scale): Rate 250 g/ha
winter barley = experiment: Test E winter barley; format: in vivo, Hordeum vulgare; settings: Preemergence; for Barley (winter) plant response rating (0 to 100 scale): Rate 250 g/ha
[5] = Preemergence, Rate 62 g/ha, scale of 0 to 10 where 0 is no effect and 10 is complete control
[6] = Preemergence, Rate 250 g/ha, scale of 0 to 10 where 0 is no effect and 10 is complete control
[7] = Preemergence, Rate 500 g/ha, scale of 0 to 10 where 0 is no effect and 10 is complete control
[8] = Rate 62 g/ha, Postemergence, scale of 0 to 10 where 0 is no effect and 10 is complete control
[9] = Rate 125 g/ha, Preemergence, scale of 0 to 10 where 0 is no effect and 10 is complete control
[10] = Rate 500 g/ha, Postemergence, scale 0 to 10, 0 no effect, 10 complete control
[11] = Rate 62 g/ha, headed Pre-emergence (flood test species), scale 0 to 10 (0 no effect, 10 complete control)
[12] = Rate 125 g/ha, Pre-emergence, flood test species, scale 0 to 10 where 0 is no effect and 10 is complete control
[13] = Rate 250 g/ha, Pre-emergence, flood-test species, scale 0 to 10, 0 is no effect, 10 is complete control
[14] = Rate 500 g/ha, Pre-emergence, flood test species, scale 0 to 10 (0 no effect, 10 complete control)
[15] = Rate 1000 g/ha, 0 to 100 scale where 0 is no effect and 100 is complete control
[16] = 0 to 100 scale where 0 is no effect and 100 is complete control
[17] = Rate 500 g/ha, 0 to 100 scale, 0 is no effect, 100 is complete control
[18] = Rate 500 g/ha, 0 to 100 scale where 0 is no effect and 100 is complete control
[19] = Rate 1000 g/ha, 0 to 100 scale, 0 no effect, 100 complete control
[20] = Rate 125 g/ha, Postemergence, scale of 0 to 10 where 0 is no effect and 10 is complete control
[21] = Rate 250 g/ha, Postemergence, scale of 0 to 10 where 0 is no effect and 10 is complete control

With `CC(C)N(C(=O)n1oc(=O)n(CC(C)(C)C)c1=O)c1ccc(F)cc1` [Compound 246] the “Bedstraw plant response rating” value (bedstraw; [5]) was 0, the “Bedstraw plant response rating” value (bedstraw; [6]) was 0 and the “Plant response rating, Bedstraw” value (bedstraw; [7]) was 2. The “Bedstraw plant response rating” value (bedstraw; [8]) was 7, the “Bedstraw plant response rating” value (bedstraw; Rate 125 g/ha, Postemergence, scale 0 to 10) was 7 and the “Bedstraw plant response rating” value (bedstraw; [9]) was 0. For the same compound, the “Plant response rating (0 to 10; 0 is no effect, 10 is complete control), Bedstraw” value (bedstraw; Rate 250 g/ha, Postemergence) was 9, the “Bedstraw plant response rating” value (bedstraw; [10]) was 9 and the “B. signalgrass plant response rating” value (surinam grass; [5]) was 0. The “B. signalgrass plant response rating” value (surinam grass; [6]) was 3, the “Plant response rating, B. signalgrass” value (surinam grass; [7]) was 5 and the “B. signalgrass plant response rating” value (surinam grass; [8]) was 0. The “B. signalgrass plant response rating” value (surinam grass; Rate 125 g/ha, Postemergence, scale 0 (no effect) to 10 (complete control)) was 0, the “B. signalgrass plant response rating” value (surinam grass; [9]) was 2 and the “Plant response rating (0 to 10; 0 is no effect, 10 is complete control), B. signalgrass” value (surinam grass; Rate 250 g/ha, Postemergence) was 0. For the same compound, the “B. signalgrass plant response rating” value (surinam grass; [10]) was 1, the “Wild oats plant response rating” value (wild oat [1]; [5]) was 2 and the “Wild oats plant response rating” value (wild oat [1]; [6]) was 6. For the same compound, the “Plant response rating, Wild oats” value (wild oat [1]; [7]) was 8, the “Wild oats plant response rating” value (wild oat [1]; [9]) was 3 and the “Wild oats plant response rating” value (wild oat [1]; [10]) was 0. The “Barnyardgrass plant response rating” value (bamyardgrass; [11]) was 0, the “Barnyardgrass plant response rating” value (bamyardgrass; [12]) was 0 and the “Barnyardgrass plant response rating” value (bamyardgrass; [13]) was 0. The “Barnyardgrass plant response rating” value (bamyardgrass; [14]) was 8, the “Plant response rating, Wheat (winter)” value (winter wheat [2]; [15]) was 0 and the “Wheat (winter) plant response rating” value (winter wheat [2]; [16]) was 0. The “Plant response rating, Wheat (winter)” value (winter wheat [2]; [17]) was 0, the “Blackgrass plant response rating (0 to 100 scale)” value (blackgrass) was 60 and the “Plant response rating, Blackgrass” value (blackgrass; [18]) was 100. The “Plant response rating, Blackgrass” value (blackgrass; [19]) was 100, the “Green foxtail plant response rating (0 to 100 scale)” value (green foxtail) was 100 and the “Plant response rating, Green foxtail” value (green foxtail; [18]) was 100. The “Plant response rating, Green foxtail” value (green foxtail; [19]) was 100, the “I. Ryegrass plant response rating (0 to 100 scale)” value (Italian ryegrass) was 80 and the “Plant response rating, I. Ryegrass” value (Italian ryegrass; [18]) was 90. The “Plant response rating, I. Ryegrass” value (Italian ryegrass; [19]) was 100, the “Wheat (winter) plant response rating (0 to 100 scale)” value (winter wheat [3]) was 50 and the “Plant response rating, Wheat (winter)” value (winter wheat [3]; [19]) was 50. For the same compound, the “Wild oat plant response rating (0 to 100 scale)” value (wild oat [4]) was 50, the “Plant response rating, Wild oat” value (wild oat [4]; [18]) was 65 and the “Plant response rating, Wild oat” value (wild oat [4]; [19]) was 85. For the same compound, the “Barley (winter) plant response rating (0 to 100 scale)” value (winter barley) was 40, the “Plant response rating, Barley (winter)” value (winter barley; [18]) was 50 and the “Plant response rating, Barley (winter)” value (winter barley; [19]) was 60.

`Cc1cccc(C)c1-n1c(=O)on(C(=O)N(C(C)C)C2C=CCCC2)c1=O` (stereo not shown) [Compound 273] was tested, and the “Bedstraw plant response rating” value (bedstraw; [5]) was 0, the “Bedstraw plant response rating” value (bedstraw; [6]) was 0 and the “Bedstraw plant response rating” value (bedstraw; [8]) was 0. For the same compound, the “Bedstraw plant response rating” value (bedstraw; [20]) was 0, the “Bedstraw plant response rating” value (bedstraw; [9]) was 0 and the “Plant response rating, Bedstraw” value (bedstraw; [21]) was 0. For the same compound, the “Bedstraw plant response rating” value (bedstraw; [10]) was 0, the “B. signalgrass plant response rating” value (surinam grass; [5]) was 0 and the “B. signalgrass plant response rating” value (surinam grass; [6]) was 2. For the same compound, the “Plant response rating, B. signalgrass” value (surinam grass; [7]) was 3, the “B. signalgrass plant response rating” value (surinam grass; [8]) was 0 and the “B. signalgrass plant response rating” value (surinam grass; [20]) was 0. For the same compound, the “B. signalgrass plant response rating” value (surinam grass; [9]) was 0, the “Plant response rating, B. signalgrass” value (surinam grass; [21]) was 0 and the “B. signalgrass plant response rating” value (surinam grass; [10]) was 0. The “Wild oats plant response rating” value (wild oat [1]; [5]) was 0, the “Wild oats plant response rating” value (wild oat [1]; [6]) was 0 and the “Plant response rating, Wild oats” value (wild oat [1]; [7]) was 3. For the same compound, the “Wild oats plant response rating” value (wild oat [1]; [20]) was 0, the “Plant response rating, Wild oats” value (wild oat [1]; [21]) was 0 and the “Wild oats plant response rating” value (wild oat [1]; [10]) was 0. For the same compound, the “Barnyardgrass plant response rating” value (bamyardgrass; [11]) was 0, the “Barnyardgrass plant response rating” value (bamyardgrass; [12]) was 4 and the “Barnyardgrass plant response rating” value (bamyardgrass; [13]) was 4. The “Barnyardgrass plant response rating” value (bamyardgrass; [14]) was 3, the “Plant response rating, Wheat (winter)” value (winter wheat [2]; [15]) was 60 and the “Wheat (winter) plant response rating” value (winter wheat [2]; [16]) was 30. The “Plant response rating, Wheat (winter)” value (winter wheat [2]; [17]) was 50, the “Blackgrass plant response rating (0 to 100 scale)” value (blackgrass) was 55 and the “Plant response rating, Blackgrass” value (blackgrass; [18]) was 80. The “Plant response rating, Blackgrass” value (blackgrass; [19]) was 100, the “Green foxtail plant response rating (0 to 100 scale)” value (green foxtail) was 20 and the “Plant response rating, Green foxtail” value (green foxtail; [18]) was 30. The “Plant response rating, Green foxtail” value (green foxtail; [19]) was 60, the “I. Ryegrass plant response rating (0 to 100 scale)” value (Italian ryegrass) was 30 and the “Plant response rating, I. Ryegrass” value (Italian ryegrass; [18]) was 55. The “Plant response rating, I. Ryegrass” value (Italian ryegrass; [19]) was 60, the “Wheat (winter) plant response rating (0 to 100 scale)” value (winter wheat [3]) was 50 and the “Plant response rating, Wheat (winter)” value (winter wheat [3]; [18]) was 60. For the same compound, the “Plant response rating, Wheat (winter)” value (winter wheat [3]; [19]) was 60, the “Wild oat plant response rating (0 to 100 scale)” value (wild oat [4]) was 80 and the “Plant response rating, Wild oat” value (wild oat [4]; [18]) was 70. The “Plant response rating, Wild oat” value (wild oat [4]; [19]) was 80, the “Barley (winter) plant response rating (0 to 100 scale)” value (winter barley) was 70 and the “Plant response rating, Barley (winter)” value (winter barley; [18]) was 65. For the same compound, the “Plant response rating, Barley (winter)” value (winter barley; [19]) was 80.
